We go through 34 molecules from ChEMBL document CHEMBL6120963, “Discovery of Novel PROTAC SIRT6 Degraders with Potent Efficacy against Hepatocellular Carcinoma” (J Med Chem, 2024).

Format in all cases: cell-based
In experiment [1] the target is T1, Protein cereblon/NAD-dependent protein deacylase sirtuin-6 (Homo sapiens, UniProt Q8N6T7+Q96SW2). Nature of the experiment: PROTAC activity at CRBN/SIRT6 in human SK-HEP1 cells assessed as induction of SIRT6 degradation at 0.5 uM incubated for 36 hrs by In-Cell ELISA relative to control. Background: An ELISA detects its analyte on a solid surface through an enzyme-linked reagent.

The target in experiment [2] is T1, Protein cereblon/NAD-dependent protein deacylase sirtuin-6. As to the kind of experiment: PROTAC activity at CRBN/SIRT6 in human SK-HEP1 cells assessed as induction of SIRT6 degradation at 5 uM incubated for 36 hrs by In-Cell ELISA relative to control.
Experiment [3] shares this target. As to the kind of experiment: PROTAC activity at CRBN/SIRT6 in human SK-HEP1 cells assessed as induction of SIRT6 degradation at 2 to 3 uM incubated for 36 hrs by Western blot analysis. Particulars: dose 2-3 µM. A general note: Immunoblotting shows a protein as a band on a membrane.
Experiment [4] has the same target. As to the kind of experiment: PROTAC activity at CRBN/SIRT6 in human SK-HEP1 cells assessed as induction of SIRT6 degradation at 200 nM incubated for 36 hrs by In-Cell ELISA relative to control.
The target is the same in experiment [5]. Nature of the experiment: PROTAC activity at CRBN/SIRT6 in human SK-HEP1 cells assessed as induction of SIRT6 degradation at 2 uM incubated for 36 hrs by In-Cell ELISA relative to control.

The source made the active and inactive calls. No cut-off for these calls is given here.

T1 sequence (Q8N6T7 2-355 limits assumed): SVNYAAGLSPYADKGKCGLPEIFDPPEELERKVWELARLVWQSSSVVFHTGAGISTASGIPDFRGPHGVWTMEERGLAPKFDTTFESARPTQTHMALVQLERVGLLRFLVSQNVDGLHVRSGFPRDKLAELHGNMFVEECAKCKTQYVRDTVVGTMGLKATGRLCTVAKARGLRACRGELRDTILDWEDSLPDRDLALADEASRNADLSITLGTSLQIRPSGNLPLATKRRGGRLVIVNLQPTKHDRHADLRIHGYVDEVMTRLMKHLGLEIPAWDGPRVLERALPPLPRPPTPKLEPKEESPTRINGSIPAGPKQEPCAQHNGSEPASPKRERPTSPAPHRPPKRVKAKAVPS
T1 sequence (Q96SW2 whole entry partner): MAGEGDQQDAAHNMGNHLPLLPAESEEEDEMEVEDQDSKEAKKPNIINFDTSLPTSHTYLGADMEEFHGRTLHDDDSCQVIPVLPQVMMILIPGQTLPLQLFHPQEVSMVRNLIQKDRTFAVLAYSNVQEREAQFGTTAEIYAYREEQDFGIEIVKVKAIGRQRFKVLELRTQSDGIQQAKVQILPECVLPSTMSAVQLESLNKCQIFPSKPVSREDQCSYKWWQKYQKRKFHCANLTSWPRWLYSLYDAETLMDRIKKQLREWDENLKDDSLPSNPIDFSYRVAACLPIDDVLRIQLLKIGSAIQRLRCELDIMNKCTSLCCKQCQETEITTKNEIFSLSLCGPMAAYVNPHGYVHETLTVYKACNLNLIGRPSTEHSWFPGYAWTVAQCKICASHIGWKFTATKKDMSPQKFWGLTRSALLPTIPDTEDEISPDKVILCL

`Nc1cc(N2CCN(CCOCCOCCOCC(=O)Nc3cccc4c3C(=O)N(C3CCC(=O)NC3=O)C4=O)CC2)ccc1[N+](=O)[O-]` (centres undefined): the Activity in experiment [1] came out at 44.9%; in experiment [2], 80.8%. Moreover, in experiment [3], the outcome was Active.

As to `Nc1cc(N2CCN(CC3C4CN(c5cc6c(cc5F)C(=O)N(C5CCC(=O)NC5=O)C6=O)CC34)CC2)ccc1[N+](=O)[O-]` (centres undefined), the Activity in experiment [4] came out at 89.4%; in experiment [5], 95.6%. Besides, the outcome in experiment [3] was Active.

As to `Nc1cc(N2CCN(CC(=O)Nc3cccc4c3C(=O)N(C3CCC(=O)NC3=O)C4=O)CC2)ccc1[N+](=O)[O-]` (centres undefined), the values for the Activity in experiment [1] and in experiment [2] were under 5% and 17.4%, respectively.

As for `Nc1cc(N2CCN(CCOCCOCCOCCOCC(=O)Nc3cccc4c3C(=O)N(C3CCC(=O)NC3=O)C4=O)CC2)ccc1[N+](=O)[O-]` (centres undefined), the Activity in experiment [1] is 27.8%.

Consider `Nc1cc(N2CCN(CCOCCOCC(=O)Nc3cccc4c3C(=O)N(C3CCC(=O)NC3=O)C4=O)CC2)ccc1[N+](=O)[O-]` (centres undefined), for which the Activity in experiment [1] is 46.7%; in experiment [2], 90.6%. For the same molecule, the outcome in experiment [3] was Active.

Regarding `Nc1cc(N2CCN(CCNCC3C4CN(c5ccc6c(c5)C(=O)N(C5CCC(=O)NC5=O)C6=O)CC34)CC2)ccc1[N+](=O)[O-]` (centres undefined), the Activity in experiment [5] was found to be 15.4%.

Regarding `Nc1cc(N2CCN(CCNCC3CCCN(c4cc5c(cc4F)C(=O)N(C4CCC(=O)NC4=O)C5=O)C3)CC2)ccc1[N+](=O)[O-]` (centres undefined), the Activity in experiment [4] amounted to 81.2%; in experiment [5], 98.5%. In experiment [3], the result was Active.

As for `Nc1cc(N2CCN(CC3CCCN(c4ccc5c(c4)C(=O)N(C4CCC(=O)NC4=O)C5=O)C3)CC2)ccc1[N+](=O)[O-]` (centres undefined), the Activity in experiment [4] is under 10%; in experiment [5] it was 87.1%. Also, the result in experiment [3] was Active.

`Nc1cc(N2CCN(CCNCCCC3CCN(c4ccc5c(c4)C(=O)N(C4CCC(=O)NC4=O)C5=O)CC3)CC2)ccc1[N+](=O)[O-]` (centres undefined): the Activity in experiment [4] amounted to 53.2%; in experiment [5], 82.4%. Further, in experiment [3], the result was Active.

In the case of `Nc1cc(N2CCN(CCNCCC3CCN(c4cc5c(cc4F)C(=O)N(C4CCC(=O)NC4=O)C5=O)CC3)CC2)ccc1[N+](=O)[O-]` (centres undefined), in experiment [5], the Activity was determined as 74.8%. The result in experiment [3] was Active.

In the case of `Nc1cc(N2CCN(CCNCC3CCCN(c4ccc5c(c4)C(=O)N(C4CCC(=O)NC4=O)C5=O)C3)CC2)ccc1[N+](=O)[O-]` (centres undefined), the Activity in experiment [4] worked out at 74.2%; in experiment [5] it was 51.6%.

With `Nc1cc(N2CCN(CCNCC3CCN(c4cc5c(cc4F)C(=O)N(C4CCC(=O)NC4=O)C5=O)C3)CC2)ccc1[N+](=O)[O-]` (centres undefined), the figures for the Activity in experiment [4] and in experiment [5] were 66.2% and 78.4%, respectively. Moreover, the outcome in experiment [3] was Active.

Turning to `Nc1cc(N2CCN(CCCCCC(=O)Nc3cccc4c3C(=O)N(C3CCC(=O)NC3=O)C4=O)CC2)ccc1[N+](=O)[O-]` (centres undefined), the Activity in experiment [1] came to 47.8%; in experiment [2] it was 36.8%.

`Nc1cc(N2CCN(CCNC(=O)CNc3cccc4c3C(=O)N(C3CCC(=O)NC3=O)C4=O)CC2)ccc1[N+](=O)[O-]` (centres undefined): the values for the Activity in experiment [1] and in experiment [2] were 86.5% and 91.4%, respectively. In experiment [3], the outcome was Active.

Turning to `Nc1cc(N2CCN(CCNCCCC3CCN(c4cc5c(cc4F)C(=O)N(C4CCC(=O)NC4=O)C5=O)CC3)CC2)ccc1[N+](=O)[O-]` (centres undefined), the Activity in experiment [4] was 64.3%; in experiment [5], 97.9%. Besides, the outcome in experiment [3] was Active.

Regarding `Nc1cc(N2CCN(CCNCC3CCN(c4ccc5c(c4)C(=O)N(C4CCC(=O)NC4=O)C5=O)CC3)CC2)ccc1[N+](=O)[O-]` (centres undefined), the Activity in experiment [5] is under 10%.

For the molecule `Nc1cc(N2CCN(CCC3CCN(c4cc5c(cc4F)C(=O)N(C4CCC(=O)NC4=O)C5=O)CC3)CC2)ccc1[N+](=O)[O-]` (centres undefined), the Activity was under 10% in experiment [4] and 19.8% in experiment [5].

As to `Nc1cc(N2CCN(CCC(=O)Nc3cccc4c3C(=O)N(C3CCC(=O)NC3=O)C4=O)CC2)ccc1[N+](=O)[O-]` (centres undefined), the Activity in experiment [1] turned out to be 25.6%; in experiment [2], 47.2%.

In the case of `Nc1cc(N2CCN(CCNCC3CN(c4cc5c(cc4F)C(=O)N(C4CCC(=O)NC4=O)C5=O)C3)CC2)ccc1[N+](=O)[O-]` (centres undefined), the figures for the Activity in experiment [4] and in experiment [5] were 46.1% and 83.5%, respectively.

As to `Nc1cc(N2CCN(C(=O)COc3cccc4c3C(=O)N(C3CCC(=O)NC3=O)C4=O)CC2)ccc1[N+](=O)[O-]` (centres undefined), the figures for the Activity in experiment [1] and in experiment [2] were 32.2% and 15.8%, respectively.

On to `Nc1cc(N2CCN(CC3CN(c4ccc5c(c4)C(=O)N(C4CCC(=O)NC4=O)C5=O)C3)CC2)ccc1[N+](=O)[O-]` (centres undefined), for which the Activity in experiment [4] amounted to 50.6%; in experiment [5], 11%.

As to `Nc1cc(N2CCN(CC3CN(c4cc5c(cc4F)C(=O)N(C4CCC(=O)NC4=O)C5=O)C3)CC2)ccc1[N+](=O)[O-]` (centres undefined), the Activity in experiment [4] is under 10%; in experiment [5], 20.6%.

As to `Nc1cc(N2CCN(CCNCC3CCN(c4cc5c(cc4F)C(=O)N(C4CCC(=O)NC4=O)C5=O)CC3)CC2)ccc1[N+](=O)[O-]` (centres undefined), the results for the Activity in experiment [4] and in experiment [5] were 60.5% and 84.7%, respectively. Moreover, the outcome in experiment [3] was Active.

Turning to `Nc1cc(N2CCN(CCNC(=O)COc3cccc4c3C(=O)N(C3CCC(=O)NC3=O)C4=O)CC2)ccc1[N+](=O)[O-]` (centres undefined), the Activity in experiment [1] stood at 85.7%; in experiment [2], 72.3%.

`Nc1cc(N2CCN(C(=O)CNc3cccc4c3C(=O)N(C3CCC(=O)NC3=O)C4=O)CC2)ccc1[N+](=O)[O-]` (centres undefined): in experiment [2], the Activity is 15.4%.

On to `Nc1cc(N2CCN(CC3CCN(c4cc5c(cc4F)C(=O)N(C4CCC(=O)NC4=O)C5=O)C3)CC2)ccc1[N+](=O)[O-]` (centres undefined), for which the figures for the Activity in experiment [4] and in experiment [5] were 94.5% and 99.8%, respectively. Further, the outcome in experiment [3] was Active.

With `Nc1cc(N2CCN(CC3C4CN(c5ccc6c(c5)C(=O)N(C5CCC(=O)NC5=O)C6=O)CC34)CC2)ccc1[N+](=O)[O-]` (centres undefined), the Activity in experiment [5] was 17.8%.

Consider `Nc1cc(N2CCN(CCCCC(=O)Nc3cccc4c3C(=O)N(C3CCC(=O)NC3=O)C4=O)CC2)ccc1[N+](=O)[O-]` (centres undefined), for which the Activity in experiment [1] worked out at 18.2%; in experiment [2], 49.3%.

In the case of `Nc1cc(N2CCN(CCNCC3C4CN(c5cc6c(cc5F)C(=O)N(C5CCC(=O)NC5=O)C6=O)CC34)CC2)ccc1[N+](=O)[O-]` (centres undefined), the Activity in experiment [5] was under 10%.

For `Nc1cc(N2CCN(CCNCCC3CCN(c4ccc5c(c4)C(=O)N(C4CCC(=O)NC4=O)C5=O)CC3)CC2)ccc1[N+](=O)[O-]` (centres undefined), the Activity in experiment [4] came to 49.3%; in experiment [5], 73.6%.

Regarding `Nc1cc(N2CCN(CCCC(=O)Nc3cccc4c3C(=O)N(C3CCC(=O)NC3=O)C4=O)CC2)ccc1[N+](=O)[O-]` (centres undefined), the Activity in experiment [1] was found to be 72.1%; in experiment [2], 87.3%.

On to `Nc1cc(N2CCN(CCNCC3CCN(c4ccc5c(c4)C(=O)N(C4CCC(=O)NC4=O)C5=O)C3)CC2)ccc1[N+](=O)[O-]` (centres undefined), for which the Activity in experiment [5] is under 10%.

As for `Nc1cc(N2CCN(CCCC3CCN(c4ccc5c(c4)C(=O)N(C4CCC(=O)NC4=O)C5=O)CC3)CC2)ccc1[N+](=O)[O-]` (centres undefined), the results for the Activity in experiment [4] and in experiment [5] were 84.9% and 98.9%, respectively. In experiment [3], the result was Active.

Regarding `Nc1cc(N2CCN(CCC3CCN(c4ccc5c(c4)C(=O)N(C4CCC(=O)NC4=O)C5=O)CC3)CC2)ccc1[N+](=O)[O-]` (centres undefined), the Activity was 11.2% in experiment [4] and 79.6% in experiment [5]. Moreover, the result in experiment [3] was Active.
